Patent publication US20180133211A1, “METHODS AND MATERIALS FOR PROMOTING BONE FORMATION” (Mayo Foundation for Medical Education and Research, priority 2015, published 2018)

Key:
[1] = tested on: Runx2 protein in MC3T3-E1 cells; experiment: Runx2 immunoblotting; type: cell-based, mouse; details: MC3T3-E1, 3 μM, after both 24 hours and 14 days
Method: Whole cell protein extracts were prepared using SDS sample buffer (2% SDS, 100 mM β-mercaptoethanol and 125 mM Tris-HCl, pH=6.8) and heated at 95° C. for 5 minutes. To obtain supernatant protein extracts, cell medium was collected, and proteins were precipitated with 50% trichloroacetic acid at 4° C. for 1 hour, concentrated by centrifugation, neutralized with PBS, and dissolved in SDS sample buffer.
For immunoblotting analysis, 15 μg of protein extracts were separated on 10% SDS poly-acryl amide gels, transferred to nitrocellulose membranes (Millipore), and blocked overnight with 10% blocking reagent (Roche) in TN buffer (50 mM Tris and 125 mM NaCl, pH=8.0). The following primary antibodies were used: rabbit, anti-Runx2 (sc-10758, Santa Cruz Biotechnologies, Santa Cruz, Calif.) and rabbit, anti-β-Actin (#4967, Cell Signaling, Danvers, Mass., USA). Washing was performed with TN buffer containing 0.01% Tween. Binding of the secondary antibody (anti-rabbit IgG/anti-mouse IgG horseradish peroxidase-coupled) (Roche) diluted 1:10,000 in 10% blocking solution followed by detection with the BM chemo-luminescence immunoblotting kit (Roche) was carried out as described by the supplier. Chemo-luminescence was measured with an image acquisition system (Vilber Lourmat, Marne-la-Vallée, France). Measurements are given as means of 3 immuno-blots, and representative blots are shown.

[2] = tested on: sham operated or ovariectomized (OVX) C57B16/J female mice; experiment: In vivo analysis of SFN effects on bone, μCT; parameters: species or system mouse; details: sham-operated mice
Method: (§1) Analysis of SFN on mice was performed using a protocol similar to that described elsewhere (Kong et al., Arthritis Rheum., 62:159-170 (2010)). In the experimental setting herein, eight week old sham operated or ovariectomized (OVX) C57B16/J female mice were purchased from Charles River laboratories. Mice were injected with 7.5 mM DL-SFN (200 μL of SFN at a concentration of 63.8 mg/mL/kg dissolved in ethanol and further diluted in PBS) intraperitoneally every other day for five weeks. Control mice received vehicle alone.
Images from tibias fixed in 4% formaldehyde were acquired in a SkyScan 1174 with a resolution of 6 μm (X-ray voltage 50 kV). Image reconstruction was performed by applying a modified Feldkamp algorithm using the Skyscan Nrecon software. 3D and 2D morphometric parameters were calculated for the trabecular bone (350 consecutive slides, 6 μm thick) starting from 300 μm from the growth plate. Threshold values were applied for segmenting trabecular bone corresponding to bone mineral density values of 0.6/cm^3 calcium hydroxyapatite. 3D parameters were based on analysis of a Marching Cubes type model with a rendered surface. Calculation all of 2D areas and perimeters was based on the Pratt algorithm (Pratt et al., IEEE Trans. Biomed. Eng., 38, 306-309 (1991). Bone structural variables and nomenclature were used according to Bouxsein et al. (J. Bone Miner. Res., 25:1468-1486 (2010)).

[3] = tested on: sham operated or ovariectomized (OVX) mice; experiment: Quantitative backscattered electron imaging (qBEI) of bone mineralization, SFN in vivo; parameters: species or system mouse; details: two-way ANOVA
Method: as §1
Un-decalcified distal femora from 13 weeks old mice, sham/Crt (n=5), sham/DL-SFN (n=5), OVX/ctrl (n=4) and OVX/DL-SFN (n=5), were fixed and dehydrated in alcohol, embedded in polymethylmethacrylate (PMMA), and prepared for backscattered electron imaging as previously described. qBEI is based on backscattering of electrons from the surface-layer (i.e., the initial ˜1.5 micron) of a bone section. The rate of these backscattered electrons is proportional to the weight concentration of mineral (hydroxyapatite), and thus of that of calcium in bone. Details of the method were described elsewhere (Roschger et al., Bone, 42:456-466 (2008)). A scanning electron microscope (DSM 962, Zeiss, Oberkochen, Germany) equipped with a four quadrant semiconductor backscattered electron detector was used. […]

Mesenchymal stem cells = experiment: RNA-Seq of mesenchymal stem cells treated with BMP2 and/or GSK126; type: cell-based, human; details: 2 μM GSK126 together with 50 ng/ml BMP2
Method: mRNASeq was performed on the following samples: 1) MSCs grown on plastic or titanium disks in osteogenic cocktail (one sample from each time-point, samples created by pooling biological triplicates), 2) RNA from d3 AMCs treated with vehicle or 2 μM GSK126 in osteogenic cocktail (three samples from each treatment group), 3) RNA from d3, d6, and d10 MC3T3 treated with vehicle or 5 μM GSK126 (one sample from each treatment group at each time-point, samples created by pooling biological triplicates), 4) RNA from three day old female WT or cKO (Prrx1-Ezh2) (one sample from each genotype, pooling of RNA from three (WT) and two (cKO)), and one sample of MSCs in adipogenic cocktail for six days. High throughput mRNA sequencing and bioinformatic analyses (mRNASeq) were performed as described elsewhere (Dudakovic et al., J. Cell Biochem., 115:1816-1828 (2014)).
In addition, osteogenic genes are synergistically activated by GSK126 and BMP2. Mesenchymal stem cells were treated with 50 ng/ml BMP2 and/or 2 μM GSK126. […] Thus, EZH2 inhibition enhances the osteogenic potential of cells treated with BMP2, a key osteogenic activator.

SMILES	Runx2 protein expression [1]	femoral metaphyseal cancellous bone volume per tissue volume (BV/TV) ([2]; DL-SFN IP every other day for five weeks)	trabecular number (Tb.N) ([2]; DL-SFN for five weeks)	trabecular separation (Tb.Sp.) ([2]; DL-SFN for five weeks)	trabecular thickness (Tb.Th.) ([2]; DL-SFN for five weeks)	CaPeak and CaWidth of trabecular bone (qBEI) [3]	expression of key osteogenic factors DLXS, SP7, IBSP (Mesenchymal stem cells)
C[S+]([O-])CCCCN=C=S (racemic) [DL-SFN]	significant increase	significantly higher	significantly higher	decreasing	not affecting	no effects	–
CC[C@H](C)n1cc(C)c2c(C(=O)NCc3c(C)cc(C)[nH]c3=O)cc(-c3ccc(N4CCNCC4)nc3)cc21 [GSK126, N-[(1,2-dihydro-4,6-dimethyl-2-oxo-3-pyridinyl)methyl]-3-methyl-1-[(1S)-1-methylpropyl]-6-[6-(1-piperazinyl)-3-pyridinyl]-1H-indole-4-carboxamide]	–	–	–	–	–	–	synergistically enhanced
